These results are taken from US20210115000A1, “NILE RED DERIVATIVES FOR IMPROVED RATIOMETRIC IMAGING FOR NERVE SPECIFIC CONTRAST” (Oregon Health & Sciences University, priority 2018, published 2021).

Experiment [1] deals with U2OS human osteosarcoma cell line. Put plainly: Nile Red derivative cell staining and imaging, fixed and live cells. Type of experiment: cell-based. The conditions noted are these: 1 μM; for fluorescence intensity in fixed cells: U2OS fixed with 4% PFA, imaged without washing; for fluorescence intensity in fixed cells / fluorescence intensity in live cells without washing / structures observed in live cells without washing: 5 min; for fluorescence intensity in live cells without washing / structures observed in live cells without washing: U2OS live, imaged in staining solution. On the procedure: The U2OS human osteosarcoma cell line was cultured in Dulbecco's Modified Eagle Medium (DMEM, Thermo Fisher Scientific, Waltham, Mass.) with 10% fetal bovine serum (FBS, VWR, Radnor, Pa.) and 1% Penicillin/Steptomycin 100× (Thermo Fisher Scientific) at 37° C. in 5% CO2. For live cell imaging studies, Fluorobrite DMEM media (Thermo Fisher Scientific) was used in place of DMEM. For imaging studies, cells were grown in 96-well glass bottom plates (Cellvis, Mountain View, Calif.) for 48 hours, with a final confluence of <80%. Nile Red and its derivatives were prepared at 1-10 mM stock concentration in DMSO and diluted into media or buffer for cell staining and imaging studies.
Cell staining studies were completed on fixed and live U2OS cells using Nile Red and each synthesized Nile Red derivative described as follows. For fixed cell staining, cells were washed once with 1× phosphate buffered saline (PBS), then fixed with 4% paraformaldehyde (PFA) for 20 minutes at room temperature. The PFA was removed and each well was washed three times for 5 mins per wash (3×5 mins) with 1×PBS. The Nile Red fluorophores were diluted into 1×PBS to a final concentration of 1 μM, incubated for 5 minutes with the cells, and images were collected without washing. Live cell staining was completed using two methods. First, cells were washed once with Fluorobrite DMEM. The Nile Red fluorophore solution was prepared in Fluorobrite DMEM by diluting to a final concentration of 1 μM for staining, where cells were stained for 5 minutes. The fluorophore containing media was removed and the cells were fixed for 20 minutes using 4% PFA. Cells were then washed 3×5 mins with Fluorobrite DMEM prior to imaging. Second, cells were washed with Fluorobrite DMEM without FBS once for 5 minutes. Nile Red fluorophore solutions were prepared in Fluorobrite without FBS at 1 μM final concentration for cell staining. The cells were stained with the prepared solution for 5 minutes and imaged in the staining solution. All images were collected at their ideal exposure times to permit visualization of stained intracellular structures.
All ex vivo and cellular fluorescence and white light images were collected using a Zeiss AxioObserver inverted fluorescence microscope (Carl Zeiss, Oberkochen, Germany). All cell images were collected at 40× magnification and all tissue section images were collected at 10× magnification. Fluorescence excitation was completed using a Photofluor II broad band light source (89 North, Burlington, Vt.) filtered with a 545±12.5 nm bandpass excitation filter. Fluorescence images were collected using a 605±35 nm bandpass emission filter and a AxioCam 506 monochromo camera (Zeiss). All Filters were Purchased from Chroma Technologies (Bellows Falls, Vt.).

Experiment [2] has as its system sciatic nerve or brachial plexus nerve sites (adipose, nerve, muscle tissue). Description: In vivo imaging following direct/topical administration on rodent nerve sites. The conditions noted are these: for nerve accumulation: summary of in vitro, ex vivo and in vivo characterization. More on the design: species or system male CD-1 mice. The text has this: In vivo images were acquired using a previously published, custom-built small animal fluorescence imaging system, described briefly here.^27 Fluorescent images were obtained using a Qimaging EXi Blue monochrome camera (Surrey, British Columbia, CA) with a removable Bayer mask for collection of co-registered color and fluorescence images. A Photofluor II broad band light source (89 North) was expanded onto the surgical field through a liquid light guide and used unfiltered for white light illumination. Nile Red and NR5 were excitated using a 545 t 12.5 nm bandpass filter, while fluorescence emission images were collected with a 605±35 nm bandpass filter. Oxazine 4 (Exciton, West Chester, Ohio) was used for nerve and adipose co-staining and ratiometic imaging studies. Oxazine 4 was excited using a 620±30 nm bandpass filter, while fluorescence emission images were collected through a 700±37.5 nm bandpass filter. Approval for the use of animals in the study was obtained from the Institutional Animal Care and Use Committee (IACUC) at Oregon Health and Science University (OHSU). In vivo staining studies were carried out on male CD-1 mice using an optimized direct/topical administration protocol.^2 Staining was performed concurrently on no more than two nerve sites (sciatic nerve or brachial plexus) per mouse. Nile Red and all Nile Red derivatives were formulated in a previously published co-solvent formulation (10% DMSO, 5% Kolliphor, 63.75% serum and 21.25% PBS^14) at a final concentration of 100 μM. Each formulated fluorophore was incubated for 5 minutes on the nerve site (n=4 nerve sites/fluorophore), followed by 9 short flushes with PBS. The nerve site was then incubated with blank co-solvent not containing fluorophore for 5 minutes, followed again by 9 short flushes with PBS.

Setting [3] is: 100 μM, immediately following direct administration.
Setting [4] is: 30 minutes post direct administration.
Setting [5] is: immediately following direct administration.

The structures appear in SMILES notation. Entries after “also recorded” stand apart in the source; their conditions may differ.

Turning to `CCN(CC)c1ccc2nc3c4ccccc4c(=O)cc-3oc2c1` [Nile Red], in experiment [1], the “fluorescence intensity in fixed cells” value is given as “bright”, the “fluorescence intensity in live cells without washing” value is given as “brightest overall” and the “structures observed in live cells without washing” value is on record as “Prominent lipid droplet like structures”. In addition, the “tissue specific fluorescence intensity” value in experiment [2] (setting [3]) is “highest fluorescence signal compared to the other Nile Red derivatives; also recorded: strong fluorescence intensity”. Moreover, in experiment [2] (30 minutes after direct administration), the “tissue specific fluorescence intensity” value was “decrease in adipose, nerve and muscle fluorescence”. Also, in experiment [2] (setting [4]), the “adipose to muscle contrast” value was “greatest” and the “adipose to nerve contrast” value is listed as “decreased”. For the same compound, in experiment [2] (setting [5]), the “adipose to muscle ratio” value is given as “greatest adipose to muscle contrast” and the “adipose to nerve ratio” value was “increased contrast over control autofluorescence with similar adipose to nerve contrast”. Also, the nerve accumulation result in experiment [2] was “some nerve accumulation”.
In the case of `CCN(CC)c1ccc2nc3c4ccc(-c5ccc(C#N)cc5)cc4c(=O)cc-3oc2c1` [NR5, 4-(9-(diethylamino)-5-oxo-5H-benzo[a]phenoxazin-3-yl)benzonitrile], in experiment [1], the “fluorescence intensity in fixed cells” value is given as “bright”, the “fluorescence intensity in live cells without washing” value is “brightest of the synthesized derivatives” and the “structures observed in live cells without washing” value is “Prominent lipid droplet like structures”. Also, in experiment [1] (U2OS), the “fluorescence intensity in both the fixed and live in vitro imaging studies” value is “brightest fluorescence intensity of the Nile Red derivatives”. Moreover, the “tissue specific fluorescence intensity” value in experiment [2] (setting [3]) is “highest fluorescence signal compared to the other Nile Red derivatives; also recorded: highest fluorescence intensity in the adipose, nerve and muscle tissues of the synthesized Nile Red derivatives”. The “adipose to nerve contrast” value in experiment [2] (setting [4]) was “higher adipose-to-nerve contrast compared to Nile Red; also recorded: increased”. Besides, in experiment [2] (setting [5]), the “adipose to muscle ratio” value is “lower than Nile Red, adipose to muscle contrast was similar” and the “adipose to nerve ratio” value is “increased contrast over control autofluorescence with similar adipose to nerve contrast”. Further, the “tissue-specific contrast, adipose signal” value in experiment [2] (out to 120 minutes after direct administration) is on record as “adipose signal was maintained throughout the 120 minute imaging time”. Besides, the nerve accumulation entry in experiment [2] is reported as “minimal nerve accumulation”.
